# Columns and labels:
# [1] = cited from earlier work; for Class (safety and pharmaceutical acceptability of the counter-ions): salt forming base; for Counter Ion Class: Table 6 summary
# [2] = tested on: 4T1 mammary tumor; test: Anti-tumor efficacy in 4T1 mouse model of metastatic mammary cancer; assay type: in vivo, BALB/c mice; conditions: diet with 3 g/kg chow (0.3% w/w), started 9 days post tumor injection
# Text: The lysine salt was incorporated into standard mouse chow at an amount of 3 g/kg chow (0.3% w/w) by Harlan Teklad, Madison Wis. Half of the mice were placed on an α-TEA-Lys diet after the tumors were established (9 days post tumor injection.) and the rest placed on an analogous nutrient diet without α-TEA-Lys which served as the control group.
# [3] = Static humidity experiments, gravimetric weight change; assay type: physicochemical
# Text: Formation of hydrates can be a very slow kinetic process. A second approach to identify hydrate formation is performing static humidity experiments and monitor gravimetrically for weight change.
# [4] = Stability of stressed salts and free acid by HPLC total area normalization; conditions: for Stability compared to free acid: Table 6 summary, in solution
# Experimental: The scaled up salts and free acid were challenged by heat (solids stored at 25 and 60° C. for 1 week), oxidation (solids stored in oxygen headspace at 25° C. for 1 week), light (solids exposed≥1×ICH International Conference on Harmonization of Technical Requirements for Registration of Pharmaceuticals for Human Use UV confirmatory conditions), and solutions (HPLC diluent-methanol) at 25 and 40° C. for 1 week.
# These samples were analyzed, along with unstressed controls, by HPLC to characterize their stability.
# Salt candidates were analyzed by total area normalization (TAN). The samples were dissolved in methanol at a concentration of 0.8 mg/mL.
# The three salts (lysine, arginine, and tris) were challenged using heat (solids stored at 25 and 60° C. for 1 week), oxidation (solids stored in oxygen headspace at 25° C. for 1 week), light (UV source under ICH confirmatory conditions>200 Whr/m^2), and solutions (in HPLC diluent) at 25 and 40° C. for 1 week. Stressed samples were analyzed using HPLC to determine their impurity profiles.
# [5] = Hygroscopicity - Dynamic Vapor Sorption (DVS); conditions: for Hydration properties DVS: hydrate formed: Table 6 summary; for DVS total weight gain: at 95% RH, 25° C.
# Experimental: DVS is a gravimetric screening technique that measures how quickly and how much of a solvent (water) is adsorbed by a sample. The relative humidity or vapor concentration surrounding the sample is varied while the change in mass of the sample is measured. […] The mass values at each relative humidity step are used to generate the isotherm. Isotherms are divided in two components: sorption for increasing humidity steps and desorption for decreasing humidity steps.
# Samples were analyzed using a TA Q2000 automated dynamic vapor sorption analyzer. The samples were dried at 40° C. for 5 hours and then cooled to 25° C. with a dry nitrogen purge over them until they no longer lost mass at 0% RH.
# [6] = physchem; conditions: buffered water, pH 4, aqueous buffer, thermodynamic from solid
# Experimental: Milligram size (2 mg) quantities of each sample were placed into a vial. Buffered water (pH 4, 7, and 10) was added and the vials were stirred for a few minutes, followed by visual observation for remaining solids. The solvent was incrementally added until the solids were dissolved, or a maximum volume of solvent (10 mL) was added and the experiment was terminated.
# [7] = salt forming base; cited from earlier work
# [8] = Oxidation Ambient (oxygen headspace, 25° C., 1 week)
# [9] = Photo Stability Exposed (UV, ICH confirmatory conditions)
# [10] = Solid State Ambient (25° C., 1 week)
# [11] = Solution 40° C. Methanol, 1 week
# [12] = Solution Ambient Methanol, 1 week
SMILES,Class (safety and pharmaceutical acceptability of the counter-ions) [1],"HLPC Total Area Normalization - Area % Purity [4, 8] [Area %]",HLPC Total Area Normalization - Area % Purity ([4]; Photo Stability Dark Control) [Area %],"HLPC Total Area Normalization - Area % Purity [4, 9] [Area %]","HLPC Total Area Normalization - Area % Purity ([4]; Solid State 60° C., 1 week) [Area %]","HLPC Total Area Normalization - Area % Purity [4, 10] [Area %]","HLPC Total Area Normalization - Area % Purity [4, 11] [Area %]","HLPC Total Area Normalization - Area % Purity [4, 12] [Area %]",other results
NCCCC[C@H](N)C(=O)O [L-Lysine],I,,,,,,,,
Cc1c(C)c2c(c(C)c1OCC(=O)O)CCC(C)(CCCC(C)CCCC(C)CCCC(C)C)O2.NCCCC[C@H](N)C(=O)O (stereo not drawn) [α-TEA lysine salt],,98.8,98.7,98.8,98.7,98.8,98.2,98.8,"average tumor size compared to control diet [2]: significant decrease in average tumor size; complete tumor regression, share of the mice treated [2]: about 25%; survival compared to control diet (Kaplan-Meier) [2]: increased survival; Hydration properties Static 75% RH 30 Days, weight gain ([3]; 75% RH): 0.6 wt% wt %; static humidity weight gain ([3]; 75% RH, 33 days): 0.6%; static humidity weight gain ([3]; 84% RH, 9 days): 1.8%; Stability compared to free acid [4]: more stable; Counter Ion Class [1]: I; Hydration properties DVS: hydrate formed [5]: hydrate; DVS total weight gain [5]: about 12%; DVS residual weight after desorption cycle ([5]; corresponds to a putative hydrate): 2 weight %"
Cc1c(C)c2c(c(C)c1OCC(=O)O)CCC(C)(CCCC(C)CCCC(C)CCCC(C)C)O2.N=C(N)NCCC[C@H](N)C(=O)O (stereo not drawn) [α-TEA arginine salt],,98.4,97.9,98.5,98.6,98.6,98.2,98.4,"Hydration properties Static 75% RH 30 Days, weight gain ([3]; 75% RH): 0.7 wt %; static humidity weight gain ([3]; 75% RH, 33 days): 0.7%; static humidity weight gain ([3]; 84% RH, 9 days): 2.3%; Stability compared to free acid [4]: more stable; Counter Ion Class [1]: I; Hydration properties DVS: hydrate formed [5]: hemihydrate"
[Mg+2].[OH-].[OH-] [magnesium hydroxide],I,,,,,,,,
Cc1c(C)c2c(c(C)c1OCC(=O)O)CCC(C)(CCCC(C)CCCC(C)CCCC(C)C)O2.NC(CO)(CO)CO (stereo not drawn) [α-TEA tris salt],,98.5,98.2,98.7,98.4,98.6,98.2,98.5,"Hydration properties Static 75% RH 30 Days, weight gain ([3]; 75% RH): 4.0 wt %; static humidity weight gain ([3]; 75% RH, 33 days): 4.0%; Stability compared to free acid [4]: more stable; Hydration properties DVS: hydrate formed [5]: hemihydrate"
[K+].[OH-] [potassium hydroxide],I,,,,,,,,
"Cc1c(C)c2c(c(C)c1OCC(=O)O)CC[C@@](C)(CCC[C@H](C)CCC[C@H](C)CCCC(C)C)O2 [α-TEA free acid, α-tocopheryloxyacetic acid, reference compound]",,97.8,97.7,98.2,98.0,97.8,94.6,96.0,solubility [6]: < 200 µg/mL; DVS conclusion on hydrate formation / deliquescence ([5]; 0 to 95% RH): does not form hydrates or exhibit deliquescence; DVS total weight gain [5]: about 0.2%
N=C(N)NCCC[C@H](N)C(=O)O [L-Arginine],I,,,,,,,,
C[N+](C)(C)CCO [Choline],I,,,,,,,,pKa [7]: >11
[Ca+2].[OH-].[OH-] [calcium hydroxide],I,,,,,,,,
"CN(C)CCO [deanol, N,N-dimethylethanolamine, N,N-dimethylethanolamine]",,,,,,,,,pKa [7]: 8.8

# Reference: patent US10934267B2, “Alpha-tea salt forms: compositions and uses for treating disease” (Research Development Foundation, priority 2013, dated 2021)
